# In patent US20170198006A1, “PRMT5 INHIBITORS AND USES THEREOF” (Epizyme, Inc., priority 2014, published 2017):
# Where two headings read alike, the source gives them in different places.
# Biological target: T1, PRMT5/MEP50 (Homo sapiens, UniProt O14744)
# T1 construct: Flag-PRMT5; made in house; host or cells: Spodoptera frugiperda (SF9), baculovirus
# Test: PRMT5 Biochemical Assay (PRMT5/MEP50 enzyme assay on histone H4 peptide substrate, 3H-SAM Flashplate)
# Text: S-adenosylmethionine (SAM), S-adenosylhomocysteine (SAH), bicine, KCl, Tween20, dimethylsulfoxide (DMSO), bovine skin gelatin (BSG), and Tris(2-carboxyethyl)phosphine hydrochloride solution (TCEP) were purchased from Sigma-Aldrich at the highest level of purity possible. ^3H-SAM was purchase from American Radiolabeled Chemicals with a specific activity of 80 Ci/mmol. 384-well streptavidin Flashplates were purchased from PerkinElmer.
# Peptide representative of human histone H4 residues 1-15 was synthesized with a C-terminal linker-affinity tag motif and a C-terminal amide cap by 21st Century Biochemicals.
# The amplified genes were sublconed into pENTR/D/TEV (Life Technologies) and subsequently transferred by Gateway™ attL×attR recombination to pDEST8 baculvirus expression vector (Life Technologies).
# Protein over-expression was accomplished by infecting exponentially growing Spodoptera frugiperda (SF9) cell culture at 1.2×10^6 cell/ml with a 5000 fold dilution of BIIC stock. Infections were carried out at 27° C. for 72 hours, harvested by centrifugation, and stored at −80° C. for purification.
# Flag-PRMT5/6His-MeP50 was eluted with 300 mM Imidazole in the same buffer.
# General Procedure for PRMT5/MEP50 Enzyme Assays on Peptide Substrates.
# The assays were all performed in a buffer consisting of 20 mM Bicine (pH=7.6), 1 mM TCEP, 0.005% BSG, and 0.002% Tween20, prepared on the day of use. […] DMSO (1 ul) was added to Columns 11, 12, 23, 24, rows A-H for the maximum signal control and 1 ul of SAH, a known product and inhibitor of PRMT5/MEP50, was added to columns 11, 12, 23, 24, rows I-P for the minimum signal control. A cocktail (40 ul) containing the PRMT5/MEP50 enzyme and the peptide was added by Multidrop Combi (Thermo-Fisher). The compounds were allowed to incubate with PRMT5/MEP50 for 30 min at 25 degrees Celsius, then a cocktail (10 ul) containing ^3H-SAM was added to initiate the reaction (final volume=51 ul). […] The assays were stopped by the addition of non-radioactive SAM (10 ul) to a final concentration of 600 uM, which dilutes the ^3H-SAM to a level where its incorporation into the peptide substrate is no longer detectable. 50 ul of the reaction in the 384-well polypropylene plate was then transferred to a 384-well Flashplate and the biotinylated peptides were allowed to bind to the streptavidin surface for at least 1 hour before being washed three times with 0.1% Tween20 in a Biotek ELx405 plate washer. The plates were then read in a PerkinElmer TopCount plate reader to measure the quantity of ^3H-labeled peptide bound to the Flashplate surface, measured as disintegrations per minute (dpm) or alternatively, referred to as counts per minute (cpm).
# Where dpm=disintegrations per minute, cmpd=signal in assay well, and min and max are the respective minimum and maximum signal controls.
# Where top and bottom are the normally allowed to float, but may be fixed at 100 or 0 respectively in a 3-parameter fit. The Hill Coefficient normally allowed to float but may also be fixed at 1 in a 3-parameter fit. Y is the % inhibition and X is the compound concentration.
# [1] = PRMT5 biochemical assay, read-out: Biochemical IC50
# T1 sequence (O14744 with tags, fused parts or gaps): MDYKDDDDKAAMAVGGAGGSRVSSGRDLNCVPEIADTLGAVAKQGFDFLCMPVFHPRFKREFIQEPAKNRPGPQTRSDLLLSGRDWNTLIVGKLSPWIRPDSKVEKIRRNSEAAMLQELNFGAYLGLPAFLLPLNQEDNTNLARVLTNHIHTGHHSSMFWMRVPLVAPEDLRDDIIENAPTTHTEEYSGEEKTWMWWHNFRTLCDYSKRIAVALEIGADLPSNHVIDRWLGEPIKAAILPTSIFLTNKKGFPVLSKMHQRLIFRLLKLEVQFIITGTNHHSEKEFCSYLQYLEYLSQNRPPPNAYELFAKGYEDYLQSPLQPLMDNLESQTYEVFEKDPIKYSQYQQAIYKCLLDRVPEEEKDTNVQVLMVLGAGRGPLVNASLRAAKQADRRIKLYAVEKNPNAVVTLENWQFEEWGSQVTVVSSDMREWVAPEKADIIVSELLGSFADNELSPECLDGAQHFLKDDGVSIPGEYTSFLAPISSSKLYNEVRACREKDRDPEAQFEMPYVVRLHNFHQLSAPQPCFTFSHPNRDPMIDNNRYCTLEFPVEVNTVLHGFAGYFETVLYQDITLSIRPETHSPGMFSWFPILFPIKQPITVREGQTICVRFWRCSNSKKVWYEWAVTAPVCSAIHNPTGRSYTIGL
# T1 sequence (Q9BQA1 with tags, fused parts or gaps partner limits assumed): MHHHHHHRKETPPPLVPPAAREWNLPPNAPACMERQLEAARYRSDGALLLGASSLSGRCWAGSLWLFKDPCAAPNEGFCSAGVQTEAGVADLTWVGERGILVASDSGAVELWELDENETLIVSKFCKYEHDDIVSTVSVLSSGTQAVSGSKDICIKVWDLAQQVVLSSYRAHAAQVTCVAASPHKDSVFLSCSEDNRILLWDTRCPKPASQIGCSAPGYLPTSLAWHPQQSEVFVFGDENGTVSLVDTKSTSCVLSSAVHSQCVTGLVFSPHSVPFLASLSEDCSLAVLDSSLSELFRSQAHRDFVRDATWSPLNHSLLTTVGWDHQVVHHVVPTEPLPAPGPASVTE
Structure (SMILES),IC50 [1] [nM],IC50 [nM]
CN(CCNCc1ccc(OC(F)F)cc1)C[C@H]1O[C@@H](n2cnc3c(N)ncnc32)[C@H](O)[C@@H]1O [Compound 1-1],101 to 1000,–
COc1cccc([C@H](C)NCCN(C)C[C@H]2O[C@@H](n3cnc4c(N)ncnc43)[C@H](O)[C@@H]2O)c1 [Compound 2-1],101 to 1000,–
"NCc1nc(CCNC(=O)c2ccccc2)cn1Cc1ccccc1 [Compound 2-2, N-(2-(2-(aminomethyl)-1-benzyl-1H-imidazol-4-yl)ethyl)benzamide]",101 to 1000,–
O=C(CC1NC(N2CCN(c3ccccc3)CC2)=NC1=O)c1ccccc1Cl (stereo not drawn) [Compound 2-6],101 to 1000,–
CN1CCN(C2=NC(=O)C(CC(=O)Nc3ccc(Cl)cc3)N2)CC1 (stereo not drawn) [Compound 2-14],1000 to 10000,–
Cc1ccc(C(C)NCCN(C)C[C@H]2O[C@@H](n3cnc4c(N)ncnc43)[C@H](O)[C@@H]2O)cc1 (stereo partly drawn) [Compound 3-1],101 to 1000,–
COc1ccccc1C(=O)CC1NC(N2CCN(c3ccccc3)CC2)=NC1=O (stereo not drawn) [Compound 3-6],101 to 1000,–
Cc1cccc(CN(C)CCN(C)C[C@H]2O[C@@H](n3cnc4c(N)ncnc43)[C@H](O)[C@@H]2O)c1 [Compound 4-1],101 to 1000,–
O=C(CC1NC(N2CCN(c3ccccc3)CC2)=NC1=O)Nc1ccc(Br)cc1 (stereo not drawn) [Compound 4-6],101 to 1000,–
Cc1ccc(NC(=O)CC2NC(N3CCN(C)CC3)=NC2=O)cc1 (stereo not drawn) [Compound 4-14],10000 to 50000,–
CC(NCCN(C)C[C@H]1O[C@@H](n2cnc3c(N)ncnc32)[C@H](O)[C@@H]1O)c1ccccc1 (stereo partly drawn) [Compound 5-1],101 to 1000,–
COc1ccccc1C(=O)CC1NC(N2CCc3ccccc3C2)=NC1=O (stereo not drawn) [Compound 5-6],< 100,–
Cc1cnc(CN)n1Cc1ccccc1 [Compound 5-13],1000 to 10000,–
CCN1CCN(C2=NC(=O)C(CC(=O)Nc3ccc(C)cc3)N2)CC1 (stereo not drawn) [Compound 5-14],1000 to 10000,–
CN(CCN(C)C[C@H]1O[C@@H](n2cnc3c(N)ncnc32)[C@H](O)[C@@H]1O)Cc1ccccc1Cl [Compound 6-1],101 to 1000,–
COc1ccccc1C(=O)CC1NC(N2CC=C(c3ccccc3)CC2)=NC1=O (stereo not drawn) [Compound 6-6],101 to 1000,–
O=C(CC1NC(N2CCN(Cc3ccccc3)CC2)=NC1=O)Nc1ccccc1 (stereo not drawn) [Compound 6-14],–,10000 to 50000
CN(CCNCc1ccc(Cl)cc1Cl)C[C@H]1O[C@@H](n2cnc3c(N)ncnc32)[C@H](O)[C@@H]1O [Compound 7-1],101 to 1000,–
NCc1ncc(CCNC(=O)c2ccccc2)n1Cc1ccccc1 [Compound 7-13],10000 to 50000,–
COc1ccc(NC(=O)CC2NC(N3CCN(c4ccccn4)CC3)=NC2=O)cc1 (stereo not drawn) [Compound 7-14],1000 to 10000,–
CN(CCNCc1ccc(Cl)cc1)C[C@H]1O[C@@H](n2cnc3c(N)ncnc32)[C@H](O)[C@@H]1O [Compound 8-1],101 to 1000,–
Cc1cccc(NC(=O)CC2NC(N3CCN(c4ccccc4)CC3)=NC2=O)c1 (stereo not drawn) [Compound 8-14],1000 to 10000,–
CN(CCN(C)C[C@H]1O[C@@H](n2cnc3c(N)ncnc32)[C@H](O)[C@@H]1O)Cc1ccccc1 [Compound 9-1],101 to 1000,–
Cc1ccc(NC(=O)CC2NC(N3CCN(Cc4ccccc4)CC3)=NC2=O)cc1 (stereo not drawn) [Compound 9-14],1000 to 10000,–
CN(CCN(C)C[C@H]1O[C@@H](n2cnc3c(N)ncnc32)[C@H](O)[C@@H]1O)Cc1ccc(Cl)cc1 [Compound 10-1],101 to 1000,–
CC(=O)Nc1ccc(NC(=O)CC2NC(N3CCN(c4ccccc4)CC3)=NC2=O)cc1 (stereo not drawn) [Compound 10-14],10000 to 50000,–
COc1cc(CNCCN(C)C[C@H]2O[C@@H](n3cnc4c(N)ncnc43)[C@H](O)[C@@H]2O)cc(OC)c1 [Compound 11-1],101 to 1000,–
CCN1CCN(C2=NC(=O)C(CC(=O)Nc3ccc(OC)cc3)N2)CC1 (stereo not drawn) [Compound 11-14],1000 to 10000,–
CN(CCNCc1ccccc1)C[C@H]1O[C@@H](n2cnc3c(N)ncnc32)[C@H](O)[C@@H]1O [Compound 12-1],101 to 1000,–
CN(CCNCc1ccc(Cl)c(Cl)c1)C[C@H]1O[C@@H](n2cnc3c(N)ncnc32)[C@H](O)[C@@H]1O [Compound 13-1],101 to 1000,–
